The values that follow come from patent US20110239327A1, “Nematicidal Effects of Cysteine Proteinases and Methods of Use Thereof to Treat Nematode Infestation” (priority 2007, published 2011).

Assay [1] deals with M. incognita J2. In words: In planta bioassay, two soil applications: nematode infection of tomato roots. Type of assay: in vivo, M. incognita on tomato plants. As to conditions: two soil applications of enzyme (250 μM papain, 2.2 μM bromelain, 3.3 mM actinidin as printed), soil 16% organic matter, 11 days. As to the method: Oxamyl is supplied as 10% liquid Vydate. 125 μl of a solution 1000 fold dilution of 10% formulation (kindly supplied by DK from NIU) was applied to 5 g of the soil mixture with 16% organic matter, to give a partial nematicidal effect. Soil mixtures were wetted with PBS pH 7.2, 16 hrs prior nematode application of 1000 or 2000 M. incognita J2. Infected soil mixtures were treated with water (control) or 250 μM of active papain in 16 mM of L-cysteine or a combination of Vydate and 250 μM of active papain in 16 mM of L-cysteine. After 48 hs tomato seedlings one month old were added to the treated soils. After 11 days the roots were washed free of soil and chopped to approximately 2 mm pieces. The root pieces of each tomato plant was placed in muslin bags and stained with acid-fuchsin. The stained roots were examined under microscope and all the nematodes present in the roots were counted. […] After 48 hours tomato seedlings one month old were added to the treated soils and after 11 days post infection nematode development inside root tissues was assessed as described above.
The avermectins are macrocyclic lactones produced by the actinomycete Streptomyces avermitilis. […] After 48 hs tomato seedlings one month old were added to the treated soils and after 11 days post infection nematode development inside root tissues was assessed as described above. […]

Assay [2] deals with Steinernema feltiae. As to the kind of experiment: In vitro effect on the beneficial nematode Steinernema feltiae. Type of assay: cell-based. As to the method:
Eggs of M. incognita race 1 from North Carolina State University, USA were collected from tomato-infected roots grown in a glasshouse at 23° C. in a 16:8 h light-dark regime. Eggs were extracted using 1% hypochlorite (NaClO) solution (Hussey and Barker, 1973) or by picking egg masses from tomato-infected roots. Juveniles (J2) were hatched from the eggs and egg masses in water. Heterodera glycines eggs were obtained from soil samples stored in Rothamsted-Research. Second stage juveniles (J2) were hatched from the eggs in water after 10 days. Pratylenchus penetrans were a gift from Dr. Deeren Anne-Marie from the Institute for Agricultural and Fisheries Research, Merelbeke, Belgium. The beneficial nematodes Steinernema feltiae and Heterorhabditis megidis were a gift from Dr. Paul Williams from Becker Underwood.
Control wells were set up which contained J2s and distilled water with 16 mM L-cysteine. Each enzyme concentration and the controls were set up in duplicate (i.e. n=2). The actual number of active J2s per well was counted with the aid of an Olympus inverted microscope, prior to the addition of the enzymes, and then the J2s were incubated in the dark at room temperature for 2 hs, 16 hs, 24 hs or 40 hr. The number of live and dead J2s per well was counted after each enzyme incubation. […]

For stem bromelain, the “reduction of nematode infection of plants” value in assay [1] was determined as 95%. Moreover, the “bromelain concentrations at which no effect was observed” value in assay [2] is given as “below 280 uM”. Further, the “effect on S. feltiae movement” value in assay [2] (high concentrations of bromelain) was “affected S. feltiae movement slightly”.
